Patent publication EP0089926A2, “Pharmaceutical preparations of tetracycles containing nitrogen, and compounds of this type” (CIBA-GEIGY AG, priority 1982, dated 1983)

Tested on: Mäuse
Assay: Step-down platform passive avoidance test, direct measurement of improvement of memory performance
Type: in vivo
Conditions: male mice, 1 mg/kg i.p. within 10 seconds after foot shock, time on platform 24 hours later versus solvent controls
Excerpt: Zur unmittelbaren […]: • Die Testvorrichtung besteht aus […] normal beleuchteten Box (50 […]äbe (6 mm Durchmesser) in einem Abstand von jeweils 13 mm angeordnet sind. In […] Gitterrostes ist eine hölzerne Plattform (10 mm Höhe, 67 mm Durchmesser) angebracht, welche von […] hoch, 68 mm […]. Zur Durchführung des Trainings werden Gruppen von jeweils 30 männlichen Mäusen (20 - 25 g) verwendet, indem jeweils ein Tier auf die von […] die […] und die Zeitdauer gemessen wird, welche das Tier zum Hinabsteigen und Berühren des Gitterrostes mit allen 4 Pfoten benö[…] von 10 Sekunden nach Verabreichung des Fussschocks werden die Testsubstanzen in Dosen von 0,1 mg/kg, 1 mg/kg und 10 mg/kg (für jede Dosis werden 30 Mäuse verwendet) je nach Löslichkeit als Lösung in physiologischer NaCl-Lösung oder einer 0,5%-igen Lösung von Methylcellulose in Wasser intraperitoneal verabreicht.

Row | SMILES | Verbesserung der Gedächtnisleistung
1 | CCC1(CCC(=O)OC)CCN2CCc3c([nH]c4ccccc34)C21 (racemic) [cis-1-Aethyl-2,3,5,6,11,11b-hexahydro-1H-indolizino[8,7-b]indol-1-propionsäuremethylester] | eine Verbesserung der Gedächtnisleistung
2 | CCC1(CC(O)C(=O)OC)CCN2CCc3c([nH]c4ccccc34)C21 (racemic) [erythro-cis-a-Hydroxy-1-äthyl-2,3,5,6,11,11b-hexahydro-1H-indolizino[8,7-b]indol-1-propionsäuremethylester] | eine Verbesserung der Gedächtnisleistung
